According to US9717718B2, “Anti-inflammatory compounds” (Phytoquest Limited, priority 2011, dated 2017):
“Also recorded” adds a separate entry of the source.

What was measured:
[1] = tested on: N-acetyl-β-D-hexosaminidase; assay: Glycosidase assay, N-acetyl-β-D-hexosaminidase; format: biochemical; conditions: 0.2 mM; negative value = stabilisation or promotion
Description: (§1) Enzymes were assayed at 27° C. in 0.1 M citric acid/0.2M disodium hydrogen phosphate buffers at the optimum pH for the enzyme. The incubation mixture consisted of 10 μl enzyme solution, 10 μl of 1 mg/ml aqueous solution of sample and 50 μl of the appropriate 5 mM para-nitrophenyl substrate made up in buffer at the optimum pH for the enzyme. […] Final absorbances were read at 405 nm using a Versamax microplate reader (Molecular Devices). Assays were carried out in triplicate, and the values given are means of the three replicates per assay.

β-D-galactosidase = assay: Glycosidase assay, β-D-galactosidase; format: biochemical; conditions: 0.2 mM
Description: (§2) All enzymes and para-nitrophenyl substrates were purchased from Sigma, with the exception of beta-mannosidase which came from Megazyme. Enzymes were assayed at 27° C. in 0.1 M citric acid/0.2M disodium hydrogen phosphate buffers at the optimum pH for the enzyme. The incubation mixture consisted of 10 μl enzyme solution, 10 μl of 1 mg/ml aqueous solution of sample and 50 μl of the appropriate 5 mM para-nitrophenyl substrate made up in buffer at the optimum pH for the enzyme. […] Final absorbances were read at 405 nm using a Versamax microplate reader (Molecular Devices). Assays were carried out in triplicate, and the values given are means of the three replicates per assay.

β-D-mannosidase = assay: Glycosidase assay, β-D-mannosidase; format: biochemical; conditions: 0.2 mM; negative value = stabilisation or promotion
Description: as §1

Amyloglucosidase = biological target: T1, Amyloglucosidase (Aspergillus niger, UniProt P69328); assay: Glycosidase assay, Amyloglucosidase; format: biochemical; conditions: 0.2 mM
T1 construct: purchased Sigma
Description: as §1

α-D-mannosidase = assay: Glycosidase assay, α-D-mannosidase; format: biochemical; conditions: 0.2 mM; for percentage inhibition, α-D-mannosidase: negative value = stabilisation or promotion
Description: as §2

α-L-fucosidase = assay: Glycosidase assay, α-L-fucosidase; format: biochemical; conditions: 0.2 mM
Description: as §2

α-D-glucosidase (Rice) = biological target: T2, α-D-glucosidase (Rice) (Oryza sativa subsp. japonica, UniProt Q653V7); assay: Glycosidase assay, α-D-glucosidase (Rice); format: biochemical; conditions: 0.2 mM
T2 construct: purchased Sigma
Description: as §1

α-D-galactosidase = assay: Glycosidase assay, α-D-galactosidase; format: biochemical; conditions: 0.2 mM; negative value = stabilisation or promotion
Description: as §2

α-D-glucosidase (Yeast) = biological target: T3, α-D-glucosidase (Yeast) (Saccharomyces cerevisiae, UniProt P53341); assay: Glycosidase assay, α-D-glucosidase (Yeast); format: biochemical; conditions: 0.2 mM, negative value = stabilisation or promotion of enzyme activity
T3 construct: purchased Sigma
Description: as §2

[2] = tested on: α-D-glucosidase (Bacillus); assay: Glycosidase assay, α-D-glucosidase (Bacillus); format: biochemical; conditions: 0.2 mM
Description: as §2

glucosidases = assay: Glycosidase panel, summary in words for glucosidases; format: biochemical; conditions: 0.2 mM
Description: as §2

[3] = tested on: N-acetyl-β-D-gluc (Jack bean); assay: Glycosidase assay, N-acetyl-β-D-gluc (Jack bean); format: biochemical; conditions: 0.2 mM; negative value = stabilisation or promotion
Description: as §2

β-D-glucosidase = assay: Glycosidase assay, β-D-glucosidase; format: biochemical; conditions: 0.2 mM
Description: as §2

[4] = tested on: N-acetyl-β-D-gluc (Bovine kidney); assay: Glycosidase assay, N-acetyl-β-D-gluc (Bovine kidney); format: biochemical; conditions: 0.2 mM; negative value = stabilisation or promotion
Description: as §2

Naringinase = assay: Glycosidase assay, Naringinase; format: biochemical; conditions: 0.2 mM
Description: as §1

β-glucuronidase = conditions: 0.2 mM
Description: as §2

[5] = tested on: equine endometrial explant, Prostaglandin F2α (PGF2α) secretion; assay: In vitro equine endometrial explant culture, LPS-stimulated PGF2α secretion; format: cell-based, horse
Description: The efficacy of ido-BR1 as an anti-inflammatory agent in a model of mucosal inflammation was tested. The model utilised was previously optimised and established (D M Nash, E A. Lane, S Herath and I M Sheldon (2008) Endometrial Explant Culture for Characterizing Equine Endometritis. American Journal of Reproductive Immunology. 59: 105-117). The model is comprised of an in vitro equine endometrial explant tissue culture system. […]
Uterine tissue was collected from mares at an abattoir, the endometrial (mucosal) surface was dissected out, […] placed in culture as explants. […] The secretion of PGF2α is measured at 24 and 72 h after challenge with LPS in order to represent the innate and chronic immune response respectively.
Explants were treated with control (media alone) or, in order to determine whether ido-BR1 affected spontaneous PGF2α, 0.5, 25 or 100 μg/ml ido-BR1 alone. […] The secretion of PGF2α was measured at 24 and 72 h after treatments were applied. […]

T3 sequence (P53341 whole entry): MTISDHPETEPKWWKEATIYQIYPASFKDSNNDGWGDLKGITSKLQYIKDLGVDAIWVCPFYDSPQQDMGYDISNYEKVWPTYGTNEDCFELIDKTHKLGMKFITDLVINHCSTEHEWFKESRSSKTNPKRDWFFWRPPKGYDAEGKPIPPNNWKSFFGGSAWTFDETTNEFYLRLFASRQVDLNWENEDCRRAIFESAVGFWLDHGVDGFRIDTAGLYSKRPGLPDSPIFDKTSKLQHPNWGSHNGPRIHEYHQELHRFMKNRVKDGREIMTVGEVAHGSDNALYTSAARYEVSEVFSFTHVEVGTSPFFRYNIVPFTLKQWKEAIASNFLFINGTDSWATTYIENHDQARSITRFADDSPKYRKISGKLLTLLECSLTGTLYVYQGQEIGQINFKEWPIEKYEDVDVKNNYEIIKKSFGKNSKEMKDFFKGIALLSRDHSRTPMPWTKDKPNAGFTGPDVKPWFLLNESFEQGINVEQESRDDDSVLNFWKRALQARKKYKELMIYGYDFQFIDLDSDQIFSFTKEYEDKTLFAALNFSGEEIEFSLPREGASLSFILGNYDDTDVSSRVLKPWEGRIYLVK
T1 sequence (P69328 25-640): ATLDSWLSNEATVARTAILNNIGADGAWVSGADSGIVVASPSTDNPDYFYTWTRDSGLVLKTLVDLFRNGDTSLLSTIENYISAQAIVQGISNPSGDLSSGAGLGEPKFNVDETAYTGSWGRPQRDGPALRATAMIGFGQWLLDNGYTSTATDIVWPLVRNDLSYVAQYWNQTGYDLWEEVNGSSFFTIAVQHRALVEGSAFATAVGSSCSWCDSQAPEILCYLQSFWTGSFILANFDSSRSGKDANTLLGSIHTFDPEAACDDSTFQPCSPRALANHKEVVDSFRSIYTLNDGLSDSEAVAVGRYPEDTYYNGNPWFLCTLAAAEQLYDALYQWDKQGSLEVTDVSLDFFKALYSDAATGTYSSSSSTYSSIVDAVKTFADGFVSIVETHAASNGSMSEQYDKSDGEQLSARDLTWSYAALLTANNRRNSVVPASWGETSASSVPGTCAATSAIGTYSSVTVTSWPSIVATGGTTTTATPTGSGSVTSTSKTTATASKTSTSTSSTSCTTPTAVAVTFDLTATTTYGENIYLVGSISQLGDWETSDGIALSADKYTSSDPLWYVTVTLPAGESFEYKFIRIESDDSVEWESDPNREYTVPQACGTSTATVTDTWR
T2 sequence (Q653V7 34-885): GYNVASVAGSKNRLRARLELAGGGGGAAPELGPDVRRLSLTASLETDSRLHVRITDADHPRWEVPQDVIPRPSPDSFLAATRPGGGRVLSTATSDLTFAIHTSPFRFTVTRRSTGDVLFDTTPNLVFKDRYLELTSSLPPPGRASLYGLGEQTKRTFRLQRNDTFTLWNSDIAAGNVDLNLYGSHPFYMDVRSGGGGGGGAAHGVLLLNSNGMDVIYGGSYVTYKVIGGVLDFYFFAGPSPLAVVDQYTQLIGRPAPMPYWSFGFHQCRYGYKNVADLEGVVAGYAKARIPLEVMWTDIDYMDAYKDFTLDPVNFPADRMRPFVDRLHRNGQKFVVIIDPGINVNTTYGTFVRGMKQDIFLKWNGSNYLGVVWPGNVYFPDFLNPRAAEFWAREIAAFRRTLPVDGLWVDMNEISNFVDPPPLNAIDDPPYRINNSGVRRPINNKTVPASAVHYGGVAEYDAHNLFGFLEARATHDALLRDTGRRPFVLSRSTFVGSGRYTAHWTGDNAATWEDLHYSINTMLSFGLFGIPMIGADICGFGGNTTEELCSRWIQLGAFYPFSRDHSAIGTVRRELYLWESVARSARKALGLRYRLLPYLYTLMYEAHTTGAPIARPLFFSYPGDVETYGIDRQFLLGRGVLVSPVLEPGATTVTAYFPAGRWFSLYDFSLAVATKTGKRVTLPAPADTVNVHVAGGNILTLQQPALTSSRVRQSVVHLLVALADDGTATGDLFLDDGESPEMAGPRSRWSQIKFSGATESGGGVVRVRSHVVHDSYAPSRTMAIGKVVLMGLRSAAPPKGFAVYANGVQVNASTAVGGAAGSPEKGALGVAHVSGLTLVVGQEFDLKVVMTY

## OC[C@H]1NC[C@H](O)[C@@H](O)[C@@H]1O [DNJ, reference compound]
[1]
  percentage inhibition, N-acetyl-β-D-hexosaminidase: −5.5%
β-D-galactosidase
  percentage inhibition, β-D-galactosidase: 0.4%
β-D-mannosidase
  percentage inhibition, β-D-mannosidase: −19.0%
Amyloglucosidase
  percentage inhibition, Amyloglucosidase: 31.7%
α-D-mannosidase
  percentage inhibition, α-D-mannosidase: 26.6%
α-L-fucosidase
  percentage inhibition, α-L-fucosidase: 5.9%
α-D-glucosidase (Rice)
  percentage inhibition, α-D-glucosidase (Rice): 99.6%
α-D-galactosidase
  percentage inhibition, α-D-galactosidase: −3.3%
α-D-glucosidase (Yeast)
  percentage inhibition, α-D-glucosidase (Yeast): 35.7%
[2]
  percentage inhibition, α-D-glucosidase (Bacillus): 99.5%
glucosidases
  inhibition of glucosidases (in words): potent inhibition
[3]
  percentage inhibition, N-acetyl-β-D-gluc (Jack bean): 2.8%
β-D-glucosidase
  percentage inhibition, β-D-glucosidase: 63.7%
[4]
  percentage inhibition, N-acetyl-β-D-gluc (Bovine kidney): −0.8%
Naringinase
  percentage inhibition, Naringinase: 20.8%

## O=C(O)[C@@H]1NC[C@H](O)[C@@H](O)[C@@H]1O [ido-BR1, (2R,3R,4R,5S)-3,4,5-trihydroxypiperidine-2-carboxylic acid]
β-D-galactosidase
  percentage inhibition, β-D-galactosidase: 1.0%
β-D-mannosidase
  percentage inhibition, β-D-mannosidase: −4.4%
α-D-mannosidase
  effect on alpha-mannosidase activity (in words): promote alpha-mannosidase activity slightly
  percentage inhibition, α-D-mannosidase: −28.4%
β-glucuronidase
  inhibition of glucuronidase (in words): not inhibitory
  percentage inhibition, β-glucuronidase: 2.5%
α-D-galactosidase
  percentage inhibition, α-D-galactosidase: −2.7%
[5]; 3.0 μg/ml LPS with 0.5, 25 or 100 μg/ml ido-BR1, 24 h
  PGF2α secretion by LPS-challenged explants versus control (abrogation of inflammation): not significantly different to the control; also recorded: abrogated inflammation in the explants
[5]; 3.0 μg/ml LPS with ido-BR1, 72 h
  abrogation of LPS-stimulated PGF2α secretion: not significant
α-D-glucosidase (Yeast); read-out: percentage inhibition, α-D-glucosidase (Yeast)
  inhibition at 200 µM: 4.7%
[2]
  percentage inhibition, α-D-glucosidase (Bacillus): 26.4%
glucosidases
  inhibition of glucosidases (in words): very weakly inhibitory
[3]
  percentage inhibition, N-acetyl-β-D-gluc (Jack bean): −4.5%
β-D-glucosidase
  percentage inhibition, β-D-glucosidase: 6.1%
[4]
  percentage inhibition, N-acetyl-β-D-gluc (Bovine kidney): 5.5%
